{"source": "patent US20130225629A1", "about": "“TARGETING PI3K/MTOR SIGNALLING AND NEUTROPHIL RECRUITMENT FOR TREATMENT OF ENTERITIS” (THE UNIVERSITY OF NORTH CAROLINA AT CHAPEL HILL, priority 2012, published 2013)", "key": {"Cxcl2 mRNA": {"system": "Cxcl2 mRNA", "test": "Real-time RT-PCR of colonic Cxcl2 mRNA", "type": "in vivo, mice", "details": "AS252424 vs vehicle treated infected mice", "protocol": "Total RNA from colonic tissue was extracted using TRIzol® kit (Invitrogen, Carlsbad, Calif., United States of America). Complementary DNA was prepared using M-MLV (Invitrogen). Messenger RNA levels of proinflammatory genes were determined using SYBR® Green PCR Master Mix (Applied Biosystems, Carlsbad, Calif., United States of America) on an ABI 7900HT Fast Real-Time PCR System and normalized to Gapdh. The polymerase chain reactions were performed according to the manufacturer's recommendation. The following gene primers were used: Gapdh_forward: 5′-[…]-3′ (SEQ ID NO: 2), Gapdh_reverse: 5′-[…]-3′ (SEQ ID NO: 3), II-1_forward: 5′-[…]-3′ (SEQ ID NO: 4), II-1_reverse: 5′-[…]-3′ (SEQ ID NO: 5), Cxcl2_forward: 5′-[…]-3′ (SEQ ID NO: 6), Cxcl2_reverse: 5′-[…]-3′ (SEQ ID NO: 7), II-17a_forward: 5′-[…]-3′ (SEQ ID NO: 8), II-17a_reverse: 5′-[…]-3′ (SEQ ID NO: 9), II12p40_forward: […] (SEQ ID NO: 10), II12p40_reverse: […] (SEQ ID NO: 11), Tnf forward: […] (SEQ ID NO: 12), Tnf reverse: […] (SEQ ID NO: 13).\nTotal RNA from intestinal tissues was extracted using TRIzol® kit (Invitrogen, Carlsbad, Calif., United States of America) following the manufacture's guide. cDNA was reverse-transcribed using M-MLV (Invitrogen). Proinflammatory 111β, Cxcl2, II17a and Tnfα mRNA expression levels were measured using SYBR® Green PCR Master mix (Applied Biosystems, Carlsbad, Calif., United States of America) on an ABI 7900HT Fast Real-Time PCR System and normalized to Gapdh. The PCR primers used were reported previously. (Sun et al., 2012). The PCR reactions were performed for 40 cycles according to the manufacturer's recommendation, and RNA fold changes were calculated using the ΔΔct method."}, "CMT-93 cells": {"system": "CMT-93 cells", "test": "C. jejuni epithelial cell translocation assay (transwell)", "type": "cell-based, Murine", "details": "10 μM AS252424, transwell, up to 5 hrs", "protocol": "Murine rectal carcinoma epithelial CMT-93 cells (1×10^6) were plated onto 12-well Transwells (Corning Inc., Corning, N.Y., United States of America) in DMEM media containing 10% FBS and 2 mM L-glutamine. Upon reached confluency (monolayer), the medium was changed to 1% FBS medium and 10^8 C. jejuni was added to the upper inserts in presence or absence of 10 μM AS252424. Aliquot of medium from bottom wells was collected every hr for 5 hrs, serially diluted and cultured on Remel (Remel, Thermo Scientific, Hampton, N.H., United States of America) plates as described before (Sun et al., 2012). Translocated C. jejuni was reported as CFU/ml at each time point."}, "C. jejuni": {"system": "C. jejuni", "test": "Colonic crypt abscess count in C. jejuni infected mice", "type": "in vivo", "details": "AS252424-treated II10−/− mice vs vehicle", "source_text": "All animal protocols were approved by the Institutional Animal Care and Use Committee of the University of North Carolina at Chapel Hill (Chapel Hill, N.C., United States of America). Germ-free 8-12 week-old II10^−/−; NF-κBEGFP (129/SvEv; C57BL/6 mixed background), II10^−/− and II10^−/−; Rag2^−/− mice (129/SvEv) were transferred from germ-free isolators and immediately gavaged with a single dose of 10^9 C. jejuni cfu/mouse (strain 81-176 (Korlath et al., 1985)) and sacrificed after up to 14 days as described previously (Sun et al., 2012). Specific pathogen free (SPF) housed Wt, II10^−/− and Pi3kγ^−/− (Sasaki et al., 2000) mice all on a 129/SvEv background were gavaged 10^9 C. jejuni cfu/mouse one day after 7 day treatment with antibiotics cocktail (streptomycin 2 g/L, gentamycin 0.5 g/L, bacteriocin 1 g/L and ciprofloxacin 0.125 g/L) (Sun et al., 2012). […] Histological images were acquired using a DP71 camera and DP Controller 3.1.1.276 (Olympus, Center Valley, Pa., United States of America), and intestinal inflammation was scored on a scale of 0 to 4 as described before (Lippert et al., 2009; Sun et al., 2012). Neutrophils in colonic tissues were identified based on morphological features using H&E stained sections and counted in 5 fields of view/mouse using a microscope. Data were expressed as average counts/mouse."}}, "data": [{"compound": "O=C1NC(=O)/C(=C/c2ccc(-c3ccc(F)cc3O)o2)S1", "note": "[AS252424]", "values": [{"measurement": "block of C. jejuni-induced Cxcl2 mRNA accumulation", "setting": "Cxcl2 mRNA", "result": 73, "unit": "%"}, {"measurement": "C. jejuni translocation across CMT-93 monolayer", "setting": "CMT-93 cells", "result": "did not prevent"}, {"measurement": "reduction of C. jejuni-induced crypt abscesses", "setting": "C. jejuni", "result": 95, "unit": "%"}]}]}
